# Results published in patent US20230278981A1, “DICHLOROPHENOL HSD17B13 INHIBITORS AND USES THEREOF” (INIPHARM, INC., priority 2020, published 2023).
# Target: HSD17B13 (Homo sapiens (Human), UniProt Q7Z5P4)
# Experiment: LC/MS estrone detection assay: conversion of estradiol to estrone by HSD17B13
# Type: biochemical
# Conditions: 4 μM estradiol, 6 mM NAD+, 30 nM HSD17B13 enzyme (E. coli expressed His-tagged), 2 hours at 26.5° C.
# Summary of the method: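 His-tagged E. coli-expressed HSD17B13 (30 nM) with 4 μM estradiol and 6 mM NAD+ in 1 M potassium phosphate pH 7.4, 0.5% DMSO, 2 h at 26.5° C. Estrone and estradiol quantified by LC-MS/MS after MeCN quench with D4-estrone internal standard; activity as % of uninhibited enzyme, IC50 by four-parameter fit, duplicates.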
# Sequence of HSD17B13 (Q7Z5P4 20-300): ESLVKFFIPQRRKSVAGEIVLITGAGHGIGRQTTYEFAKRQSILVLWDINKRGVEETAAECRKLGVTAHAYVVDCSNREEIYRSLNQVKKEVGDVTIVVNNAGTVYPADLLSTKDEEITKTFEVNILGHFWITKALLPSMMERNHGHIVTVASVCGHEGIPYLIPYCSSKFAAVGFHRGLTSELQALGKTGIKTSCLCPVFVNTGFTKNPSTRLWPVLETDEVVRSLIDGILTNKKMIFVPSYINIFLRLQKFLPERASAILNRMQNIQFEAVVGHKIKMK
row,Structure (SMILES),IC50
1,"Cc1ccc(NC(=O)c2cc(Cl)c(O)c(Cl)n2)c2c(=O)n(Cc3ncccc3Cl)c(C)nc12 [Example 178, 4,6-dichloro-N-(3-((3-chloropyridin-2-yl)methyl)-2,8-dimethyl-4-oxo-3,4-dihydroquinazolin-5-yl)-5-hydroxypicolinamide]",500 to 1000 nM
2,"[2H]C([2H])([2H])c1nc2c(C)ccc(NC(=O)c3cc(Cl)c(O)c(Cl)c3)c2c(=O)n1Cc1ccccc1C(F)(F)F [Example 179, 3,5-dichloro-4-hydroxy-N-(8-methyl-2-(methyl-d3)-4-oxo-3-(2-(trifluoromethyl)benzyl)-3,4-dihydroquinazolin-5-yl)benzamide]",≤ 100 nM
3,"[2H]C([2H])([2H])c1nc2c(C)ccc(NC(=O)c3cc(Cl)c(O)c(Cl)n3)c2c(=O)n1Cc1ccccc1C(F)(F)F [Example 180, 4,6-dichloro-5-hydroxy-N-(8-methyl-2-(methyl-d3)-4-oxo-3-(2-(trifluoromethyl)benzyl)-3,4-dihydroquinazolin-5-yl)picolinamide]",100 to 500 nM
4,"Cc1ccc(NC(=O)c2cc(Cl)c(O)c(Cl)n2)c2c(=O)n(Cc3ccccc3C(F)(F)F)c(C(F)F)nc12 [Example 181, 4,6-dichloro-N-(2-(difluoromethyl)-8-methyl-4-oxo-3-(2-(trifluoromethyl)benzyl)-3,4-dihydroquinazolin-5-yl)-5-hydroxypicolinamide]",100 to 500 nM
5,"O=C(Nc1scnc1C(=O)NCc1ccccc1C(F)(F)F)c1cc(Cl)c(O)c(Cl)c1 [Example 182, 5-(3,5-dichloro-4-hydroxybenzamido)-N-(2-(trifluoromethyl)benzyl)thiazole-4-carboxamide]",≤ 100 nM
6,"Cc1ccc(NC(=O)c2cc(Cl)c(O)c(Cl)c2)c2c(=O)n(Cc3ncccc3F)c(C)nc12 [Example 183, 3,5-dichloro-N-(3-((3-fluoropyridin-2-yl)methyl)-2,8-dimethyl-4-oxo-3,4-dihydroquinazolin-5-yl)-4-hydroxybenzamide]",100 to 500 nM
7,"[2H]C([2H])([2H])c1nc2c(F)ccc(NC(=O)c3cc(Cl)c(O)c(Cl)n3)c2c(=O)n1Cc1ccccc1C(F)(F)F [Example 184, 4,6-dichloro-N-(8-fluoro-2-(methyl-d3)-4-oxo-3-(2-(trifluoromethyl)benzyl)-3,4-dihydroquinazolin-5-yl)-5-hydroxypicolinamide]",100 to 500 nM
8,"Cc1ccc(NC(=O)c2cc(Cl)c(O)c(Cl)c2)c2c(=O)n(Cc3ccccc3C(F)(F)F)c(CF)nc12 [Example 186, 3,5-dichloro-N-(2-(fluoromethyl)-8-methyl-4-oxo-3-(2-(trifluoromethyl)benzyl)-3,4-dihydroquinazolin-5-yl)-4-hydroxybenzamide]",≤ 100 nM
9,"Cn1nc(CNC(=O)c2ncsc2NC(=O)c2cc(Cl)c(O)c(Cl)n2)c2ccccc21 [Example 187, 5-(4,6-dichloro-5-hydroxypicolinamido)-N-((1-methyl-1H-indazol-3-yl)methyl)thiazole-4-carboxamide]",100 to 500 nM
10,"Cn1nc(CNC(=O)c2ncsc2NC(=O)c2cc(Cl)c(O)c(Cl)c2)c2ccccc21 [Example 188, 5-(3,5-dichloro-4-hydroxybenzamido)-N-((1-methyl-1H-indazol-3-yl)methyl)thiazole-4-carboxamide]",≤ 100 nM
11,"O=C(Nc1scnc1C(=O)NCc1cccc(F)c1)c1cc(Cl)c(O)c(Cl)n1 [Example 189, 5-(4,6-dichloro-5-hydroxypicolinamido)-N-(3-fluorobenzyl)thiazole-4-carboxamide]",100 to 500 nM
12,"Cc1nc2c(F)ccc(NC(=O)c3cc(Cl)c(O)c(Cl)c3)c2c(=O)n1Cc1nn(C)c2ccccc12 [Example 190, 3,5-dichloro-N-(8-fluoro-2-methyl-3-((1-methyl-1H-indazol-3-yl)methyl)-4-oxo-3,4-dihydroquinazolin-5-yl)-4-hydroxybenzamide]",≤ 100 nM
13,"O=C(Nc1scnc1C(=O)NCc1ccccc1OC(F)(F)F)c1cc(Cl)c(O)c(Cl)n1 [Example 191, 5-(4,6-dichloro-5-hydroxypicolinamido)-N-(2-(trifluoromethoxy)benzyl) thiazole-4-carboxamide]",≤ 100 nM
